In test [1] the test system is U-87 (human primary glioblastoma) cells. In words: Short term cytotoxicity, MTT assay. Conditions: 1 h treatment then 72 h culture, read-out: cytotoxicity expressed in IC50, U-87. In kind it is cell-based. As to the method: (§1) For the short term cytotoxicity studies the A-431 (human squamous carcinoma) and U-87 (human primary glioblastoma) cells were cultured in RPMI-1640 medium supplemented with 10% FCS (fetal calf serum, Sigma Ltd.), 2 mM L-glutamine, and […] gentamicin. Cell cultures were maintained at 37° C. in a humidified atmosphere with 5% CO2. The cells were grown to confluency and were distributed into 96-well plate with initial cell number of 5.0×10^3 per well. After 24 h incubation at 37° C., the cells were treated with the compounds in 200 μL final volume containing 1.0 v/v % DMSO. The cells were incubated with the compounds at 10^−4-10^2 μM concentration range for 1 h. Control cells were treated with serum free medium (RPMI-1640) only or with DMSO (c=1.0 v/v %) at 37° C. for 1 h. After incubation the cells were washed twice with serum free (RPMI-1640) medium. To determine the in vitro cytostatic effect, the cells were cultured for a further 72 h in 10% serum containing medium. MTT-solution ([…], 2 mg/mL, final concentration: 0.37 mg/mL) was added to each well. The respiratory chain [26, 27] and other electron transport systems reduce MTT and thereby form non-water-soluble violet formazane crystals within the cell. […] After 4 h of incubation the cells were centrifuged for 5 min (900 g) and the supernatant was removed. The obtained formazane crystals were dissolved in DMSO ([…]) and optical density (OD) of the samples was measured at λ=540 and 620 nm, respectively, using ELISA Reader (iEMS Reader, Labsystems, Finland). OD620 values were subtracted from OD540 values. The percent of cytostasis was calculated by using the following equation: Cytostatic effect (%)=[1−(ODtreated/ODcontrol)]×100 Values ODtreated and ODcontrol correspond to the optical densities of the treated and the control cells, respectively. In each case two independent experiments were carried out with 4 parallel measurements. […] The curves were defined using Microcal™ Origin1 (version 7.5) software: cytostasis was plotted as a function of concentration, fitted to a sigmoidal curve, and based on this curve, the half maximal inhibitory concentration (IC50) value was determined.

Test [2] has as its system A-431 (human squamous carcinoma) cells. In words: Short term cytotoxicity, MTT assay. Type of test: cell-based. The following applies: 1 h treatment then 72 h culture, read-out: cytotoxicity expressed in IC50, A-431. As to the method: as §1
In general terms: Tetrazolium assays rely on reduction of a dye to a coloured formazan, in cell work by metabolically active cells.

In test [3] the test system is MDA-MB-231 human triple-negative breast cancer xenografts. In words: Antitumoral effect on subcutaneous MDA-MB-231 tumor xenografts in SCID mice (Example 23). Type of test: in vivo. Conditions: intraperitoneal. As to the method:
MDA-MB-231 human triple-negative breast cancer xenografts were formed by subcutaneous inoculation of tumor cells into the back of the immunodeficient (SCID) mice. The investigated materials were injected into the animals intraperitoneal every two-three days for 3 weeks.
Forty SCID mice were included in the experiment. Each animal group was kept in separate cage during the experiments. On each cage, there was an identification card with birth date, the date of tumor cell injection, number and gender of animals. The injection of each substance was written on the identification card. Eight animals per substance were used and identified by ear cutting.
MDA-MB-231 human triple-negative breast cancer cells were grown in RPMI-1640 Medium (Sigma Chemical Co., St. Louis, MO), supplemented with 10% fetal bovine serum (Sigma) and 1% penicillin-streptomycin (Sigma) at 37° C. in a humidified atmosphere of 5% CO2. […]
During the experiment weight of the animals and size of the tumors were recorded.
Tumor volume was determined three times a week during the experiment.
Anti-tumor effect of compounds was evaluated also measuring tumor weight in each group after termination of experiment (FIGS. 64 and 65).

On to `O=C1C2=C(CCN(Cc3cccc(F)c3)C2)N2CCN=C2N1Cc1ccc(C(F)(F)F)cc1` [I/3, reference compound], for which the results for the IC50 in test [1] and in test [2] were 4.16 µM and under 0.2 µM, respectively.

Consider `O=C1C2=C(CCN(Cc3cc(F)cc(F)c3)C2)N2CCN=C2N1Cc1ccc(Cl)cc1` [I/124, 4-(4-Chlorobenzyl)-7-(3,5-difluorobenzyl)-2,4,6,7,8,9-hexahydroimidazo[1,2-a]pyrido[3,4-e]pyrimidin-5(1H)-one], for which the “tumor volume / tumor growth” value in test [3] (3 weeks, vs control (Student's t-test)) is “significant”. The “tumor weight after termination” value in test [3] (after termination of experiment, vs control) is given as “highest, significant inhibition”.

The term IC50 denotes the concentration that gives 50% inhibition.

The values above are taken from patent publication US20230295162A1 (EÖTVÖS LORÁND TUDOMÁNYEGYETEM, priority 2020, published 2023).
